# Test results: PMC1940322, “The Effect of PPARα, PPARδ, PPARγ, and PPARpan Agonists on Body Weight, Body Mass, and Serum Lipid Profiles in Diet-Induced Obese AKR/J Mice” (PPAR Research, 2007)
# Assays:
# [1] = test system: diet-induced obese (DIO) AKR/J mouse; assay: Body weight, body composition (qMR) and liver weight in diet-induced obese AKR/J mice; type: in vivo; conditions: for BW day 28 / effect on FM (in words) / effect on LM (in words) / increase in liver weight / effect on BW (in words) / Fat mass day 28 / Lean mass day 28 / Liver weight: 28 days; for effect on FM (in words) / effect on LM (in words): doses as in methods; for increase in liver weight: PPARα agonist 1 mg/kg or PPARδ agonist 30 mg/kg alone; for BW day 0: baseline before treatment; for effect on BW (in words): oral, GW9578 1, GW0742 30, GW7845 3, RIM 10 and 30 mg/kg, PPARpan agonists; for Fat mass day 28 / Lean mass day 28: qMR; for Liver weight: terminal collection
# Procedure: The effects of monotherapy with selective PPAR agonists, combination therapy with PPARα and PPARδ, and treatment with PPARpan agonists were evaluated in four experiments in diet-induced obese (DIO) AKR/J mouse. The AKR/J mouse is a polyoma-susceptible strain originally utilized to study accelerated tumor development. This strain becomes obese and hyperinsulemic when fed a high fat diet. Age-matched, male AKR/J mice were allowed ad libitum access to Research Diet D12331 (Research Diet, Brunswick, NJ) at the Jackson Laboratories (Bar Harbor, ME) beginning at 6 weeks of age. The diet has an energy density of 5.56 kcal/g (58% kcal from fat; 26% kcal from carbohydrates, and 16% kcal from protein). The animals were allowed to become obese, achieving BW >40 grams before shipping to GlaxoSmithKline laboratory animal facility at 13 weeks of age. The mice were housed 4 per cage in standard shoebox cages and were fed the high fat diet until they reached approximately 50 grams. Age-matched lean control animals obtained from Jackson Laboratories were fed a diet of normal chow (3.04 kcal/g energy density, 12% kcal from fat, LabDiet 5001, St. Louis, MO) and used for comparison.
# At the beginning of each study, the animals were weighed and body composition obtained using an EchoMRI-100 quantitative magnetic resonance (qMR, EchoMRI, Houston, TX) whole body composition analyzer. […] 16 lean control mice on standard chow were used as reference. All mice were dosed orally with vehicle (0.5% methylcellulose and 0.1% Tween 80, 10 mL/kg) for six days prior to the beginning of dosing for acclimation to handling and treatment before drug treatment was initiated.
# In each experiment, BW of each animal was measured and recorded three times weekly throughout the treatment period. Body mass was obtained weekly on days 0, 7, 13, 20, and 27 of treatment. The effects of selective PPARα, δ, and γ agonists on food consumption were also assessed. Food consumption is expressed as total energy consumed (kcal) over a 24-period and as cumulative consumption over the course of the experiment.
# (§1) On the final day of each experiment, a terminal blood sample (800–1000 μL) was obtained via cardiac puncture under isoflurane anesthesia. Whole blood was placed in a Terumo Capiject blood collection tube (Terumo Medical Corp., Elkton, Md, USA), allowed to sit at room temperature for 20 minutes then centrifuged to obtain serum. Serum levels of glucose, triglycerides, glycerol, nonesterified fatty acids, total cholesterol, the high-density lipoprotein cholesterol, and β-hydroxybutyrate were determined in all mice using an Olympus AU640 clinical chemistry immuno-analyzer (Olympus America Inc., Melville, NY, USA). In addition, liver weights were obtained following the terminal blood sample on the final day of the study and samples were used to determine liver fatty acid oxidation activity.
# Experiment 1 was designed to study the effects of a selective PPARα agonist and PPARδ agonist as mono and combination therapy. 48 mice were sorted into 6 groups and blocked such that initial BW and body composition were not different between groups. […] Two additional groups of mice were dosed for the first 14 days with either a PPARα agonist or a PPARδ agonist alone. At day 15, the PPARδ agonist was added to the treatment regimen of animals dosed with PPARα, and the PPARα agonist was added to the dosing material of animals previously dosed with PPARδ alone. The sixth group was dosed with both the PPARα and PPARδ agonists for the entire 28-day period. BW and food consumption were assessed 3 times per week and body composition was measured weekly.
# In Experiment 2, 32 mice were sorted into 4 groups (n = 8/group) and dosed with vehicle and a selective PPARγ agonist (GW7845, 3 mg/kg) for 28 days. Rimonabant (RIM, 10 or 30 mg/kg, q.d.), a CB1 receptor antagonist, was used as a positive control for weight loss. […]
# [2] = test system: fatty acid oxidation in mouse liver; assay: Ex vivo fatty acid oxidation in liver homogenates (14C-CO2 capture); conditions: liver extracts from animals treated for 28 days
# Procedure: Fatty acid oxidation (FAO) was determined by ^14C-labeled CO2 capture from tissue homogenates using a method modified from Dohm et al.. Following treatment with either vehicle or a PPAR agonist, livers from fed mice were surgically removed and a section excised from the same lobe. The tissue was immediately weighed, minced with scissors and placed in tubes (Falcon #2063) on ice. Cold SET buffer (250 mM Sucrose, 1 mM EDTA, 10 mM Tris, pH 7.4) was added at a ratio of 10 mL SET:1 gram of tissue and the tissue homogenized on ice for 15 sec using a hand-held homogenizer (Polytron PT1200; Kinematica AG). The homogenates remained on ice until assayed.
# The labeled reaction buffer was prepared by first drying ^14C-oleic acid (0.5 μCi/reaction; PerkinElmer #NEC-317) under nitrogen. The dried fraction is re-suspended in unlabeled oleic acid such that the final concentration of oleic acid in the reaction buffer was 0.2 mM. BSA was added slowly while mixing to a final concentration of 0.5% and the mixture was incubated at 37°C for 15 minutes. The labeled cocktail was then added to the reaction buffer to give a produce concentration of 100 mM sucrose, 10 mM Tris pH 7.4, 4 mM ATP, 0.05 mM Coenzyme A, 0.1 mM malic acid, 1 mM magnesium chloride, 80 mM potassium chloride, 5 mM potassium phosphate, 0.2 mM EDTA, and 2 mM L-carnitine, as described previously.
# Oxidation reactions were performed in tubes (Falcon #352059) fitted with a stopper top (KONTES Glass Co., #882310-0000), center well (KONTES #882320-0000), and filter (Socorex #322.02) soaked with 175 μL of 1N NaOH. 100 μL of homogenate was dispensed into each tube and the reactions initiated by adding 400 μL of reaction buffer. The tubes were quickly capped and incubated with gentle shaking for 60 minutes in a 37°C water bath. After incubation, the filters were removed, from the tubes, placed in 7 mL of scintillant, and counted for 2 minutes (PerkinElmer Tri-Carb 3100TR). The oxidative activity of each compound was calculated as nmole CO2 captured/gram tissue/hour and reported as fold change relative to vehicle control.
# as §1
# [3] = test system: diet-induced obese (DIO) AKR/J mouse; assay: Serum clinical chemistry of terminal blood samples, DIO AKR/J mice; type: in vivo; conditions: for Cholesterol / Glucose / HDL-C / Insulin / NEFA / Triglyceride / bHBA: serum, end of treatment, 28 days; for effect on serum chemistry (in words): terminal serum after 28 days
# Procedure: as §1
smiles,measurement,setting,value
Cc1cc(SCc2sc(-c3ccc(C(F)(F)F)c(F)c3)nc2C)ccc1OCC(=O)O [GW0742],BW day 28,[1]; 30 mg/kg oral,50.2 ± 1.2 grams
same,effect on FM (in words),[1],slight decrease in FM
same,effect on LM (in words),[1],LM was unaffected
same,increase in liver weight,[1],~1 gram
same,BW day 0,[1]; group dosed 30 mg/kg oral,51.6 ± 1.1 grams
same,effect on BW (in words),[1],neither compound induced a sustained decrease in BW
same,Fat mass day 28,[1]; 30 mg/kg oral,18.4 ± 0.7 grams
same,Lean mass day 28,[1]; 30 mg/kg oral,29.7 ± 0.7 grams
same,Liver weight,[1]; 30 mg/kg oral,3.2 ± 0.1 grams
same,effect on liver FAO (in words),[2],significant increase in liver FAO
same,increase in FAO,[2]; relative to vehicle control,1.9 fold
same,Cholesterol,[3]; 30 mg/kg oral,171.9 ± 2.9 mg/dL
same,Glucose,[3]; 30 mg/kg oral,253.3 ± 8.9 mg/dL
same,HDL-C,[3]; 30 mg/kg oral,118.4 ± 1.6 mg/dL
same,Insulin,[3]; 30 mg/kg oral,2.2 ± 1.2 ng/mL
same,NEFA,[3]; 30 mg/kg oral,0.9 ± 0.02 mEq/L
same,Triglyceride,[3]; 30 mg/kg oral,174.9 ± 10.3 mg/dL
same,bHBA,[3]; 30 mg/kg oral,3.8 ± 0.3 mg/dL
same,effect on serum chemistry (in words),[3],significantly reduced circulating insulin (INS) levels
COC(=O)c1ccccc1N[C@@H](Cc1ccc(OCCc2nc(-c3ccccc3)oc2C)cc1)C(=O)O [GW7845],BW day 28,[1]; 3 mg/kg oral,54.6 ± 1.7 grams
same,effect on FM (in words),[1],significant increase in FM
same,BW day 0,[1]; group dosed 3 mg/kg oral,50.9 ± 1.2 grams
same,effect on BW (in words),[1],steady and consistent increase in BW
same,Fat mass day 28,[1]; 3 mg/kg oral,23.5 ± 1.3 grams
same,Lean mass day 28,[1]; 3 mg/kg oral,28.7 ± 0.6 grams
same,Liver weight,[1]; 3 mg/kg oral,2.0 ± 0.1 grams
same,effect on liver FAO (in words),[2],no effect on FAO in mouse liver
same,effect on liver FAO (in words),[2]; listed as PPARγ agonist,not different from vehicle
same,Cholesterol,[3]; 3 mg/kg oral,106.1 ± 4.2 mg/dL
same,Glucose,[3]; 3 mg/kg oral,222.3 ± 9.4 mg/dL
same,HDL-C,[3]; 3 mg/kg oral,65.0 ± 0.9 mg/dL
same,Insulin,[3]; 3 mg/kg oral,2.1 ± 0.4 ng/mL
same,NEFA,[3]; 3 mg/kg oral,0.6 ± 0.03 mEq/L
same,Triglyceride,[3]; 3 mg/kg oral,112.3 ± 5.7 mg/dL
same,bHBA,[3]; 3 mg/kg oral,1.5 ± 0.1 mg/dL
same,effect on serum chemistry (in words),[3],"significant reduction in circulating INS, TG, and NEFA levels"
CCCCCCCN(CCc1ccc(SC(C)(C)C(=O)O)cc1)C(=O)Nc1ccc(F)cc1F [GW9578],BW day 28,[1]; 1 mg/kg oral,51.3 ± 1.6 grams
same,effect on FM (in words),[1],slight decrease in FM
same,effect on LM (in words),[1],LM was unaffected
same,increase in liver weight,[1],~1 gram
same,BW day 0,[1]; group dosed 1 mg/kg oral,52.1 ± 1.1 grams
same,effect on BW (in words),[1],neither compound induced a sustained decrease in BW
same,Fat mass day 28,[1]; 1 mg/kg oral,18.4 ± 0.9 grams
same,Lean mass day 28,[1]; 1 mg/kg oral,30.9 ± 0.8 grams
same,Liver weight,[1]; 1 mg/kg oral,2.6 ± 0.1 grams
same,effect on liver FAO (in words),[2],not different from vehicle
same,Cholesterol,[3]; 1 mg/kg oral,117.1 ± 4.1 mg/dL
same,Glucose,[3]; 1 mg/kg oral,248.0 ± 16.6 mg/dL
same,HDL-C,[3]; 1 mg/kg oral,86.6 ± 2.7 mg/dL
same,Insulin,[3]; 1 mg/kg oral,3.1 ± 1.6 ng/mL
same,NEFA,[3]; 1 mg/kg oral,0.9 ± 0.04 mEq/L
same,Triglyceride,[3]; 1 mg/kg oral,168.3 ± 15.4 mg/dL
same,bHBA,[3]; 1 mg/kg oral,3.2 ± 1.1 mg/dL
same,effect on serum chemistry (in words),[3],significantly reduced circulating insulin (INS) levels
